# Data: patent publication US20080031866A1, “METHOD FOR MODULATING THE PHARMACOKINETICS AND METABOLISM OF A THERAPEUTIC AGENT” (priority 2006, published 2008)
# Tests used:
# [1] = IV pharmacokinetics of Compound 1 and its glucuronides in rats; format: in vivo, rat; conditions: Sprague Dawley, rat, plasma, Compound 1 2 mg/kg IV
# Method: (§1) Two separate IV studies were carried out using two separate lots of animals. IV-A was run on the same lot of animals as the oral gavage study and IV-B was run on the same lot of animals as the intraduodenal and intra-colonic studies.
# For the IV dosing solutions (IV), Compound 1 was prepared by addition to DI water containing 20% hydroxypropyl β-cyclodextran by weight.
# (§2) For the IV and oral gavage dosing (sampling at jugular and portal vein), young adult male Sprague Dawley rats weighing 250-400 g were purchased from Hilltop Lab Animals Inc. All rat experiments were conducted under approved animal protocols. The rats for the oral gavage dosing were catheterized at Hilltop Lab Animals Inc, had two chronic catheters for sampling: jugular and portal, were housed in cages of Culex™ Automated Blood Sampler (ABS) and blood samples were collected simultaneously via both cannula and were controlled by the Culex™ ABS control software.
# (§3) A quantitative method for determining the amount of (6,7-dimethoxy-2,4-dihydro-indeno[1,2-c]pyrazol-3-yl)-(3-fluoro-phenyl)-amine Compound 1 and its major metabolites, glucuronide A (Cpd 1-GluA) and glucuronide B (Cpd 1-GluB) (see Scheme A) in rat plasma was developed using phenacetin as an internal standard. [drawing 1]
# (§4) The two glucuronide conjugates were prepared and purified to permit accurate quantification of the levels of intact parent Compound 1 versus Cpd 1-GluA and Cpd 1-GluB. Each standard curve for Compound 1, Cpd 1-GluA, and Cpd 1-GluB generated from rat plasma included ten concentration levels. […] The quantitative procedure for each sample included: sample preparation, HPLC separation and mass spectrometry detection.
# (§5) The rat plasma was prepared using protein precipitation techniques. Reference standards and quality control samples in rat plasma for Compound 1 were transferred to a 96 deep-well plate. The precipitation solution contained 100 ng/ml of internal standard in acetonitrile. 300 μl of precipitation solution were added to 100 μl of each standard, quality control and plasma sample. Samples were vortexed for 10 mins, then centrifuged at 4500 RPM for 10 mins. 10 μl of each sample were injected for LC/MS/MS analysis.
# (§6) The HPLC column chosen for the bioanalysis was purchased from Thermo Electron (Hypersil BetaBasic C18, 5 cm×2.1 mm). The eluting solvents were composed of Solvent A: 0.1% formic acid in H2O and Solvent B: 0.1% formic acid in acetonitrile. A step gradient was used and flow rate was 300 μl/min. The total run time was 3.2 mins. Solvent B was increased from 35% at 0 min to 75% at 2.1 mins and decreased back to 35% at 2.2 mins. The retention times for Compound 1, phenacetin, Cpd 1-GluA and Cpd 1-GluB were 1.1 min, 0.9 min, 1.3 min, and 1.6 min, respectively.
# (§7) API3000 with a Turbo Ionspray interface from Applied Biosystems was used for the detection of Compound 1, the internal standard and major metabolites. Electrospray ionization was performed in the positive ion mode heated nebulizer with a temperature of 300° C. LC/MS/MS chromatograms were acquired in MRM (multiple reaction mode). The MRM transitions for Compound 1, the internal standard, Cpd 1-GluA and Cpd 1-GluB were from 326.3 to 190.6, 181.1 to 110.3, 502.2 to 368.3 and 502.2 to 326.4, respectively.
# Pharmacokinetic analysis of the plasma concentration data was performed to determine the maximum plasma concentration (Cmax) for the oral dose, and the concentration at zero time (C0; Compound 1 only) by the extrapolation of drug concentrations back to the time of i.v. dosing, the time to maximum plasma concentration (Tmax) following the oral dose, area under the plasma concentration vs. time curve (AUC), terminal half-life (t1/2), plasma clearance (CL/F; Compound 1 only), and volume of distribution at steady state (Vdss; Compound 1 only) for the i.v. dose, using the WinNonlin (Version 3.1, Pharsight, Palo Alto, Calif.) validated computer program.
# [2] = Oral gavage pharmacokinetics, jugular and portal vein sampling, first pass metabolism; format: in vivo, rat; conditions: for AUC: po, 75 mg/kg; for AUC / concentration at 0 h / concentration at 0.08 h / concentration at 0.25 h / concentration at 0.33 h / concentration at 0.5 h / concentration at 0.67 h / concentration at 1 h / concentration at 1.25 h / concentration at 1.5 h / concentration at 2 h / concentration at 3 h / concentration at 4 h / concentration at 6 h / concentration at 12 h / concentration at 24 h / Cmax: rats N=4; for Cmax: read-out: Cmax average ± standard deviation
# Method: as §1
# For the oral gavage dosing, Compound 1 was prepared in neat PEG-400. For the intraduodenal and intracolonic dosing solutions, Compound 1 was added to neat Tween 80, the mixture was sonicated for thirty minutes at 45° C. until Compound 1 was completely dissolved and then deionized (DI) water was added to form a solution consisting of 20% Tween 80 and 80% DI water by weight.
# as §2, §3, §4, §5, §6
# as §7, with “respectively. […]” for “respectively.”
# [3] = male, Sprague Dawley, rat, plasma (jugular vein sample), Compound 1 75 mg/kg oral gavage, jugular sample
# [4] = male, Sprague Dawley, rat, plasma (portal vein sample), Compound 1 75 mg/kg oral gavage, portal sample
# [5] = male, Sprague Dawley, rat, portal vein plasma, Compound 1 75 mg/kg oral gavage, portal sample
compound,measurement,setting,value
COc1cc2c(cc1OC)-c1n[nH]c(N(c3cccc(F)c3)[C@H]3O[C@@H](C(=O)O)[C@H](O)[C@@H](O)[C@@H]3O)c1C2 [Cpd 1-GluA],AUC,"[1]; male rats N=4, read-out: AUC average ± standard deviation",8.21 µg·h/mL
same,Cmax,"[1]; male rats N=4, read-out: Cmax average ± standard deviation",2970 ng/mL
same,concentration at 0 h,"[1]; male rats N=4, retro orbital sinus, 0 hrs",0 ng/mL
same,concentration at 0.08 h,"[1]; male rats N=4, retro orbital sinus, 0.08 hrs",2440 ng/mL
same,concentration at 0.33 h,"[1]; male rats N=4, retro orbital sinus, 0.33 hrs",2970 ng/mL
same,concentration at 1 h,"[1]; male rats N=4, retro orbital sinus, 1 hr",1670 ng/mL
same,concentration at 2 h,"[1]; male rats N=4, retro orbital sinus, 2 hrs",492 ng/mL
same,concentration at 4 h,"[1]; male rats N=4, retro orbital sinus, 4 hrs",68.6 ng/mL
same,concentration at 8 h,"[1]; male rats N=4, retro orbital sinus, 8 hrs",369 ng/mL
same,concentration at 24 h,"[1]; male rats N=4, retro orbital sinus, 24 hrs",18.6 ng/mL
same,Tmax,[1]; male rats,18 min
same,Ratio of metabolite to Compound 1,"[2]; jugular vein, oral gavage",78
same,AUC,"[2]; male, Sprague Dawley, rat, plasma (jugular vein sample), Compound 1 75 mg/kg oral gavage, jugular sample, read-out: AUC average ± standard deviation 0 to 24 hours",117 µg·h/mL
same,AUC,"[2]; male, Sprague Dawley, rat, plasma (jugular vein sample), Compound 1 75 mg/kg oral gavage, jugular sample, read-out: AUC average ± standard deviation 0 to infinite hours",169 µg·h/mL
same,concentration at 0 h,[2]; [3],2.2 ng/mL
same,concentration at 0.08 h,[2]; [3],2570 ng/mL
same,concentration at 0.25 h,[2]; [3],12400 ng/mL
same,concentration at 0.33 h,[2]; [3],16100 ng/mL
same,concentration at 0.5 h,[2]; [3],15700 ng/mL
same,concentration at 0.67 h,[2]; [3],14700 ng/mL
same,concentration at 1 h,[2]; [3],14300 ng/mL
same,concentration at 1.25 h,[2]; [3],11700 ng/mL
same,concentration at 1.5 h,[2]; [3],11700 ng/mL
same,concentration at 2 h,[2]; [3],11100 ng/mL
same,concentration at 3 h,[2]; [3],6480 ng/mL
same,concentration at 4 h,[2]; [3],3750 ng/mL
same,concentration at 6 h,[2]; [3],4290 ng/mL
same,concentration at 12 h,[2]; [3],5170 ng/mL
same,concentration at 24 h,[2]; [3],2470 ng/mL
same,Cmax,[2]; [3],17600 ng/mL
same,concentration at 0.67 h,[2]; [4],26000 ng/mL
same,concentration at 1 h,[2]; [4],11700 ng/mL
same,concentration at 1.25 h,[2]; [4],15100 ng/mL
same,concentration at 1.5 h,[2]; [4],12200 ng/mL
same,concentration at 2 h,[2]; [4],14700 ng/mL
same,concentration at 3 h,[2]; [4],10700 ng/mL
same,concentration at 4 h,[2]; [4],7500 ng/mL
same,concentration at 6 h,[2]; [4],11600 ng/mL
same,concentration at 12 h,[2]; [4],8000 ng/mL
same,Tmax,"[2]; male, Sprague Dawley, rat, plasma, rats, Compound 1 75 mg/kg oral gavage",54 min
same,AUC,"[2]; male, Sprague Dawley, rat, portal vein plasma, Compound 1 75 mg/kg oral gavage, portal sample, read-out: AUC average ± standard deviation 0 to 24 hours",190 µg·h/mL
same,AUC,"[2]; male, Sprague Dawley, rat, portal vein plasma, Compound 1 75 mg/kg oral gavage, portal sample, read-out: AUC average ± standard deviation 0 to infinite hours",271 µg·h/mL
same,concentration at 0 h,[2]; [5],1.3 ng/mL
same,concentration at 0.08 h,[2]; [5],9460 ng/mL
same,concentration at 0.25 h,[2]; [5],18900 ng/mL
same,concentration at 0.33 h,[2]; [5],22400 ng/mL
same,concentration at 0.5 h,[2]; [5],17400 ng/mL
same,concentration at 24 h,[2]; [5],5070 ng/mL
same,Cmax,[2]; [5],29200 ng/mL
same,Systemic exposure of Glu A relative to Glu B,[2]; oral gavage dosing,~66 times
same,Mean ratio of metabolite to Compound 1,"[2]; portal system, oral gavage",20
